The values below come from patent US20240308994A1, “ISOXAZOLE DERIVATIVE OR PHARMACEUTICALLY ACCEPTABLE SALT THEREOF AND USE THEREOF” (INDUSTRY-UNIVERSITY COOPERATION FOUNDATION HANYANG …, priority 2021, published 2024).

For the experiment, the target named is T1, FMS (h) (Homo sapiens, UniProt P07333).
T1 construct: purchased Reaction Biology Corp. (Kinase HotSpot service)
Briefly: Kinase HotSpot radiometric assay, activity on CSF-1R (FMS). In kind it is biochemical.

Setting [1] is: Table 3, read-out: IC50 (M) on FMS.

Where two headings read alike, the source gives them in different places.

T1 sequence (P07333 20-972): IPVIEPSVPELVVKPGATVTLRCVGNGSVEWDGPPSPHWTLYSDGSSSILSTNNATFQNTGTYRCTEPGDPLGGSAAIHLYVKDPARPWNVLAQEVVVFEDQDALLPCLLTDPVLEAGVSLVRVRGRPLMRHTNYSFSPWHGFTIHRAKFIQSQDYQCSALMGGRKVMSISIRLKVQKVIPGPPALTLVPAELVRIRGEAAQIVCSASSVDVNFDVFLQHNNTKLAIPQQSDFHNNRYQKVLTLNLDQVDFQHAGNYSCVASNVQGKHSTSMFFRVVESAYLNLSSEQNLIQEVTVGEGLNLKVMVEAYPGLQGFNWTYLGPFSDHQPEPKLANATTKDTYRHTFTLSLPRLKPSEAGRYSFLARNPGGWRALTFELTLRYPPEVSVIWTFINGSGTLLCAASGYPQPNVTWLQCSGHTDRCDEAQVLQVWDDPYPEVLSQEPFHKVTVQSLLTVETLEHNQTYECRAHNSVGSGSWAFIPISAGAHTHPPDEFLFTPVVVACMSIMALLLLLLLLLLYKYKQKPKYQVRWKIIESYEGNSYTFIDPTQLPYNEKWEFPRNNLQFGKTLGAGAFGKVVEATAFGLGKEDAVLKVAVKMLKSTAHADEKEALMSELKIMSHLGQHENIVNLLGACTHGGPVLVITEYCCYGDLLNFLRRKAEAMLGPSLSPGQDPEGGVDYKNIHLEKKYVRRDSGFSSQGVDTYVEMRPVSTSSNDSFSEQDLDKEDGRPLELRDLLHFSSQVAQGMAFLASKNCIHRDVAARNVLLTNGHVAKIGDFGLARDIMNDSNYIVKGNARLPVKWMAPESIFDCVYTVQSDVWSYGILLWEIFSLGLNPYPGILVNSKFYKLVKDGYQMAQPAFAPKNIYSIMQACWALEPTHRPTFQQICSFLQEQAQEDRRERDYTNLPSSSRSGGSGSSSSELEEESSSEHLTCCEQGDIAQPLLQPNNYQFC

On to `Cc1cc(C(=O)Nc2cc(NC(=O)c3ccc(-c4ccccc4)cc3)ccc2C)no1` [Compound 5f, N-(5-([1,1′-biphenyl]-4-carboxamido)-2-methylphenyl)-5-methylisoxazole-3-carboxamide], for which the IC50 – broadly, the concentration needed to halve the response being measured – under setting [1] was over 1e-06 M. Still for that read-out and setting: in the case of `Cc1cc(C(=O)Nc2cc(NC(=O)c3cc(N4CCN(C)CC4)cc(-n4ccnc4C)c3)ccc2C)no1` [Compound 5g, 5-methyl-N-(2-methyl-5-(3-(2-methyl-1H-imidazol-1-yl)-5-(4-methylpiperazin-1-yl)benzamido)phenyl)isoxazole-3-carboxamide] it was over 1e-06 M. Take `Cc1cc(C(=O)Nc2cc(NC(=O)c3cc(NC4CCN(C)CC4)cc(-n4ccnc4C)c3)ccc2C)no1` [Compound 5h, 5-methyl-N-(2-methyl-5-(3-(2-methyl-1H-imidazol-1-yl)-5-((1-methylpiperidin-4-yl)amino)benzamido)phenyl)isoxazole-3-carboxamide]: the IC50 under setting [1] is over 1e-06 M. Still for that read-out and setting: the same measure for `Cc1cc(C(=O)Nc2cc(NC(=O)c3cc(N[C@@H]4CCCN(C)C4)cc(C(F)(F)F)c3)ccc2C)no1` [Compound 5l, (R)-5-Methyl-N-(2-methyl-5-(3-((1-methylpiperidin-3-yl)amino)-5-(trifluoromethyl)benzamido)phenyl)isoxazole-3-carboxamide]: over 1e-06 M.

With `Cc1cc(C(=O)Nc2cc(NC(=O)c3cc(N4CCC([N+](C)(C)C)C4)cc(C(F)(F)F)c3)ccc2C)no1` (centres unmarked) [Compound 5m, N,N,N-trimethyl-1-(3-((4-methyl-3-(5-methylisoxazole-3-carboxamido)phenyl)carbamoyl)-5-(trifluoromethyl)phenyl)pyrrolidin-3-aminium], the IC50 under setting [1] was over 1e-06 M. `Cc1cc(C(=O)Nc2cc(NC(=O)c3ccc4ccccc4n3)ccc2C)no1` [Compound 5q, 5-methyl-N-(2-methyl-5-(quinoline-2-carboxamido)phenyl)isoxazole-3-carboxamide]: the IC50 under setting [1] was over 1e-06 M. Same read-out and setting: in the case of `Cc1cc(C(=O)Nc2cc(NC(=O)c3ccc4nn[nH]c4c3)ccc2C)no1` [Compound 5r, N-(5-(1H-benzo[d][1,2,3]triazole-6-carboxamido)-2-methylphenyl)-5-methylisoxazole-3-carboxamide] it was over 1e-06 M; in that of `Cc1cc(C(=O)Nc2cc(NC(=O)c3cnn(-c4ccccc4)c3C(F)(F)F)ccc2C)no1` [Compound 5s, 5-methyl-N-(2-methyl-5-(1-phenyl-5-(trifluoromethyl)-1H-pyrazole-4-carboxamido)phenyl)isoxazole-3-carboxamide], over 1e-06 M; in that of `Cc1cc(C(=O)Nc2cc(NC(=O)c3ccc4cn[nH]c4c3)ccc2C)no1` [Compound 5t, N-(5-(1H-indazole-6-carboxamido)-2-methylphenyl)-5-methylisoxazole-3-carboxamide], over 1e-06 M. Still for that read-out and setting: the same measure for `Cc1cc(C(=O)Nc2ccc(NC3CCOCC3)nc2C)no1` [Compound 17b, 5-methyl-N-(2-methyl-6-((tetrahydro-2H-pyran-4-yl)amino)pyridin-3-yl)isoxazole-3-carboxamide]: under 1e-07 M. Consider `Cc1cc(C(=O)Nc2ccc(C3CCNC3)cc2C2=CCCCC2)no1` (centres unmarked) [Compound 60a, 5-methyl-N-(5-(pyrrolidin-3-yl)-2′,3′,4′,5′-tetrahydro-[1,1′-biphenyl]-2-yl)isoxazole-3-carboxamide], for which the IC50 was 1e-07 to 1e-06 M (Table 1, read-out: IC50) and 1e-07 to 1e-06 M under setting [1]. Regarding `Cc1cc(C(=O)Nc2ccc(C3CCNCC3)cc2C2=CCCCC2)no1` [Compound 60b, 5-methyl-N-(5-(piperidin-4-yl)-2′,3′,4′,5′-tetrahydro-[1,1′-biphenyl]-2-yl)isoxazole-3-carboxamide], the half-inhibitory concentration (IC50) by setting is: (Table 1, read-out: IC50) under 1e-07 M; under setting [1], under 1e-07 M. In the case of `Cc1cc(C(=O)Nc2ccc(C3CCCNCC3)cc2C2=CCCCC2)no1` (centres unmarked) [Compound 60c, N-(5-(azepan-4-yl)-2′,3′,4′,5′-tetrahydro-[1,1′-biphenyl]-2-yl)-5-methylisoxazole-3-carboxamide], the IC50 is, setting by setting: (Table 1, read-out: IC50) under 1e-07 M; under setting [1], under 1e-07 M. As to `Cc1cc(C(=O)Nc2ccc(C3CCNCC3)cc2C2=CCCC2)no1` [Compound 61b, N-(2-(Cyclopent-1-en-1-yl)-4-(piperidin-4-yl)phenyl)-5-methylisoxazole-3-carboxamide], the IC50 by setting is: (Table 1, read-out: IC50) over 1e-06 M; under setting [1], over 1e-06 M. With `Cc1cc(C(=O)Nc2ccc(C3CCNCC3)cc2-c2cncnc2)no1` [Compound 62b, 5-methyl-N-(4-(piperidin-4-yl)-2-(pyrimidin-5-yl)phenyl)isoxazole-3-carboxamide], the IC50 is, setting by setting: (Table 1, read-out: IC50) over 1e-06 M; under setting [1], over 1e-06 M. On to `Cc1cc(C(=O)Nc2ccc(C3CCNCC3)cc2C2=CCC(C)CC2)no1` (centres unmarked) [Compound 63b, 5-Methyl-N-(4′-methyl-5-(piperidin-4-yl)-2′,3′,4′,5′-tetrahydro-[1,1′-biphenyl]-2-yl)isoxazole-3-carboxamide], for which the IC50 runs as follows: (Table 1, read-out: IC50) under 1e-07 M; under setting [1], under 1e-07 M.

Consider `Cc1cc(C(=O)Nc2ccc(C3CCNCC3)cc2C2=CCC(C)(C)CC2)no1` [Compound 64b, N-(4′,4′-dimethyl-5-(piperidin-4-yl)-2′,3′,4′,5′-tetrahydro-[1,1′-biphenyl]-2-yl)-5-methylisoxazole-3-carboxamide], for which the concentration for half-maximal inhibition (IC50) (Table 1, read-out: IC50) is under 1e-07 M and the IC50 under setting [1] was under 1e-07 M. In the case of `Cc1cc(C(=O)Nc2ccc(C3CCCNCC3)cc2C2=CCC(C)(C)CC2)no1` (centres unmarked) [Compound 64c, N-(5-(azepan-4-yl)-4′,4′-dimethyl-2′,3′,4′,5′-tetrahydro-[1,1′-biphenyl]-2-yl)-5-methylisoxazole-3-carboxamide], the IC50 was under 1e-07 M (Table 1, read-out: IC50) and under 1e-07 M under setting [1]. Take `Cc1cc(C(=O)Nc2ccc(C3CCNCC3)cc2C2CCCCC2)no1` [Compound 65b, N-(2-cyclohexyl-4-(piperidin-4-yl)phenyl)-5-methylisoxazole-3-carboxamide]: the IC50 is over 1e-06 M (Table 1, read-out: IC50) and over 1e-06 M under setting [1]. `Cc1cc(C(=O)Nc2ccc(C3CCNCC3)cc2C2CCCC2)no1` [Compound 66b, N-(2-Cyclopentyl-4-(piperidin-4-yl)phenyl)-5-methylisoxazole-3-carboxamide]: the IC50 runs as follows: (Table 1, read-out: IC50) over 1e-06 M; under setting [1], over 1e-06 M. Consider `Cc1cc(C(=O)Nc2ccc(C3CCN(C)CC3)cc2C2=CCCCC2)no1` [Compound 67b, 5-methyl-N-(5-(1-methylpiperidin-4-yl)-2′,3′,4′,5′-tetrahydro-[1,1′-biphenyl]-2-yl)isoxazole-3-carboxamide], for which the IC50 (Table 1, read-out: IC50) was under 1e-07 M and the IC50 under setting [1] was under 1e-07 M. With `Cc1cc(C(=O)Nc2ccc(C3CCCN(C)CC3)cc2C2=CCCCC2)no1` (centres unmarked) [Compound 67c, 5-methyl-N-(5-(1-methylazepan-4-yl)-2′,3′,4′,5′-tetrahydro-[1,1′-biphenyl]-2-yl)isoxazole-3-carboxamide], the IC50 was in the range of 1e-07 to 1e-06 M (Table 1, read-out: IC50) and 1e-07 to 1e-06 M under setting [1]. For the molecule `Cc1cc(C(=O)Nc2ccc(C3CCCN(C)CC3)cc2C2=CCC(C)(C)CC2)no1` (centres unmarked) [Compound 68c], the IC50 by setting is: (Table 1, read-out: IC50) under 1e-07 M; under setting [1], under 1e-07 M. For `Cc1cc(C(=O)Nc2ccc(C3CCN(C)CC3)cc2C2CCCCC2)no1` [Compound 69b, N-(2-cyclohexyl-4-(1-methylpiperidin-4-yl)phenyl)-5-methylisoxazole-3-carboxamide], the IC50 was over 1e-06 M (Table 1, read-out: IC50) and over 1e-06 M under setting [1].
